This is an account of results in patent US4810705A, “Triazolo [3,4-b]pyridazines, process for their preparation and pharmaceutical compositions containing them” (priority 1984, dated 1989).

Read-outs that look alike come from different tables or passages of the source.

One data set has as its target benzodiazepine receptor. Briefly: Displacement of tritiated flunitrazepam from the benzodiazepine receptor (synaptic preparations of rat brain). It counts as binding. The note with it: tritiated flunitrazepam (60 Ci/mM), 1.1 nM final, read-out: median effective concentration (IC50). The protocol:
ABILITY OF THE DERIVATIVES TO DISPLACE TRITIATED FLUNITRAZEPAM FROM THE BENZODIAZEPINE RECEPTOR
The studies were carried out on synaptic preparations of rat brain in accordance with the method described by Squives and Braestrup (Nature, 1977, 266, pages 732 to 734) and Mohler and Okada (Science, 1977, 198, pages 849 to 851).
The tritiated flunitrazepam (60 Ci/mM) was used at a final concentration of 1.1 nM. The results obtained with various products of the invention are shown in Table III and are expressed as median effective concentration (IC50) in μM.

A short description of data set [1]: Acute oral toxicity in female Charles River CD1 mice. To be noted: mouse, in vivo, read-out: % toxicity (percentage of dead animals). On the procedure: Finally, the products of the invention were studied for their toxicity.
The studies were carried out on groups of 5 female Charles River mice of the CD1 strain, weighing between 20 and 24 g. The products were administered orally, diluted in 5% gum arabic. The acute toxicity was recorded during the 72 hours following administration of the product.
The results below (percentage of dead animals) were obtained as a function of the dose administered.

Data set [2] deals with myorelaxation induced by diazepam. Briefly: Antagonism of diazepam myorelaxation, traction test in mice. It counts as in vivo. To be noted: 15 min before diazepam 3 mg/kg i.p., test 60 min after product; for ED50: Mus musculus, 1 h, read-out: Antagonism of the myorelaxation, 50% effective dose (ED50). The protocol: (a) Myorelaxant properties.
The studies were carried out by means of the traction test (J. R. Boissier et al., Archives Internationales de Pharmacodynamie, 1961, 135, pages 29-49). This test determines the ability of mice, placed with the front paws on a horizontally stretched wire, to grip with the back paws. The animals which have not brought the back paws onto the wire in less than 5 seconds are considered to be in a state of myorelaxation.
The products are administered 15 minutes before the intraperitoneal injection of a dose of 3 mg/kg of diazepam and the test is performed 60 minutes after administration of the product to be studied. The study was carried out on groups of 10 mice per dose.

Another data set has as its system food intake. The experiment in a line: Food intake of fasted rats. It counts as in vivo. The note with it: 40 mg/kg orally, first hour. The protocol:
Furthermore, the products according to the invention were studied for their ability to reduce the food intake of fasted rats.
The studies were carried out on isolated female rats (200 to 240 g) trained to consume their food during a period of 4 hours per day. On the day of the test, 60 minutes before the food is provided, the animals receive either the product to be studied or the vehicle of administration. The quantity of food ingested during the first hour is determined.
The values shown in the table are the mean values for groups of 6 rats.

For data set [3], the system named is anxiolytic effect of diazepam. Briefly: Antagonism of anxiolytic effect of diazepam, approach-avoidance conflict test in rats. The class given is in vivo. The note with it: 60 min before diazepam 4 mg/kg i.p. On the procedure:
The studies were carried out on rats in the approach-avoidance conflict test (L. Cook and A. B. Davidson, Effects of behaviorally active drugs in a conflict-punishment procedure in rats. In: The Benzodiazepines, S. Garattini, E. Mussini and L. O. Randall, editors, Raven Press, New York, 1973, 327-345).
A representative product of the invention, SR 95 195, was administered intraperitoneally 60 minutes before an anxiolytic dose of diazepam (4 mg/kg i.p.). The test was performed 30 minutes after administration of the diazepam.

Consider `c1ccc(-c2cnn3cnnc3c2)cc1` [SR 95 194, 7-Phenyl-1,2,4-triazolo[4,3-b]pyridazine], for which the IC50 on benzodiazepine receptor was 0.049 mM. Further, the mortality at 72 h in data set [1] (250 mg/kg orally) stood at 0%; in data set [1] (500 mg/kg orally), 0%; in data set [1] (1000 mg/kg orally) it was 100%.
Consider `Cc1nnc2cc(-c3ccccc3)cnn12` [SR 95 195], for which, in data set [2], the ED50 was found to be 26 mg/kg. Also, the “Food intake” value in the data set with food intake (60 min before food, fasted female rats, mean, groups of 6) came out at 8.6 ± 1.5 g. In the data set on food intake (p < 0.01, Student's test), the “Food intake, % variation relative to the control animals” value is -51%. Moreover, at benzodiazepine receptor, the IC50 was 0.009 mM. In addition, the mortality at 72 h was 0% in data set [1] (250 mg/kg orally), 0% in data set [1] (500 mg/kg orally) and 80% in data set [1] (1000 mg/kg orally). Besides, the “% antagonism (anxiolytic effect of diazepam)” value in data set [3] (1.25 mg/kg i.p.) came out at 26%; in data set [3] (6.25 mg/kg i.p.) it was 74%; in data set [3] (25 mg/kg i.p.), 100%.
For `Cc1nnc2cc(Cc3ccccc3)cnn12` [SR 95 252], the IC50 on benzodiazepine receptor worked out at 0.027 mM. Besides, the mortality at 72 h in data set [1] (250 mg/kg orally) turned out to be 0%; in data set [1] (500 mg/kg orally), 0%; in data set [1] (1000 mg/kg orally), 100%.
For the molecule `COc1ccc(-c2cnn3c(C)nnc3c2)cc1` [SR 95 287, 7-(4-Methoxyphenyl)-3-methyl-1,2,4-triazolo[4,3-b]pyridazine], the mortality at 72 h in data set [1] (250 mg/kg orally), in data set [1] (500 mg/kg orally) and in data set [1] (1000 mg/kg orally) was 0% throughout.
Take `Cc1nnc2cc(-c3ccc(Cl)cc3)cnn12` [SR 95 369]: the mortality at 72 h in data set [1] (250 mg/kg orally) came to 0%; in data set [1] (500 mg/kg orally), 100%; in data set [1] (1000 mg/kg orally), 100%.
`Cc1ccc(-c2cnn3c(C)nnc3c2)cc1` [SR 95 370]: the mortality at 72 h in data set [1] (250 mg/kg orally) was determined as 40%; in data set [1] (500 mg/kg orally), 100%; in data set [1] (1000 mg/kg orally), 100%.
For the molecule `Cc1nnc2cc(-c3cccc(Cl)c3)cnn12` [SR 95 398], in data set [2], the ED50 was 20 mg/kg. For the same molecule, the IC50 at benzodiazepine receptor is 0.0026 mM. Further, the mortality at 72 h in data set [1] (250 mg/kg orally) and in data set [1] (500 mg/kg orally) was 0% throughout.
Take `Cc1nnc2cc(CCc3ccccc3)cnn12` [SR 95 410]: the mortality at 72 h in data set [1] (250 mg/kg orally), in data set [1] (500 mg/kg orally) and in data set [1] (1000 mg/kg orally) was 0% each time.
For the molecule `Cc1nnc2cc(-c3ccccc3Cl)cnn12` [SR 95 437], the mortality at 72 h in data set [1] (250 mg/kg orally) and in data set [1] (500 mg/kg orally) was 0% each time.
Consider `c1ccc(Cc2nnc3cc(-c4ccccc4)cnn23)cc1` [SR 95 491, 7-Phenyl-3-benzyl-1,2,4-triazolo[4,3-b]pyridazine], for which the IC50 at benzodiazepine receptor was 0.0045 mM.
`Clc1ccc(-c2nnc3cc(-c4ccccc4)cnn23)cc1` [SR 95 492]: the mortality at 72 h in data set [1] (250 mg/kg orally) and in data set [1] (500 mg/kg orally) was 0% throughout.
As for `c1ccc(-c2cnn3c(-c4ccccc4)nnc3c2)cc1` [SR 95 494], the IC50 on benzodiazepine receptor worked out at 0.05 mM. The mortality at 72 h in data set [1] (250 mg/kg orally) and in data set [1] (500 mg/kg orally) was 0% in each case.
Turning to `Cc1nnc2cc(-c3cccc(C(F)(F)F)c3)cnn12` [SR 95 533], the “Antagonism of the myorelaxation, effect (dose)” value in data set [2] (at 100 mg/kg) is 100%. The IC50 on benzodiazepine receptor was 0.0029 mM.
